What was measured:
Assay in all cases: Post-emergence efficacy of compounds of Formula (I) (B1), glasshouse
Format in all cases: in vivo
[1] = test system: Ipomoea hederacea (IPOHE); conditions: Application Rate 500 g/Ha, evaluated after 13 days; for pest or weed control at 500 g/ha: Ipomoea hederacea, post-emergence, 312 h, read-out: Control of IPOHE after post-emergence application (100=total damage to plant; 0=no damage to plant)
Method: (§1) Seeds of a variety of test species were sown in standard Iaom-based soil in pots:— Ipomoea hederacea (IPOHE), Euphorbia heterophylla (EPHHL), Chenopodium album (CHEAL), Amaranthus palmeri (AMAPA), Lolium perenne (LOLPE), Digitaria sanguinalis (DIGSA), Eleusine indica (ELEIN), Echinochloa crus-galli (ECHCG), Setaria faberi (SETFA). After cultivation for 14 days (post-emergence) under controlled conditions in a glasshouse (at 24/16° C., day/night; 14 hours light; 65% humidity), the plants were sprayed with an aqueous spray solution derived from the dissolution of the technical active ingredient Formula (I) in a small amount of acetone and a special solvent and emulsifier mixture referred to as IF50 (11.12% Emulsogen EL360 TM+44.44% N-methylpyrrolidone+44.44% Dowanol DPM glycol ether), to create a 50 g/I solution which was then diluted to required concentration using 0.25% or 1% Empicol ESC70 (Sodium lauryl ether sulphate)+1% ammonium sulphate as diluent. The delivery of the aqueous spray solution was via a laboratory track sprayer which delivered the aqueous spray composition at a rate of 200 litres per hectare, using a flat fan nozzle (Teejet 11002VS) and an application volume of 200 litre/ha (at 2 bar).
(§2) The test plants were then grown in a glasshouse under controlled conditions (at 24/16° C., day/night; 14 hours light; 65% humidity) and watered twice daily. After 13 days the test was evaluated (100=total damage to plant; 0=no damage to plant).

[2] = test system: Chenopodium album (CHEAL); conditions: Chenopodium album, post-emergence, 312 h, Application Rate 500 g/Ha; evaluated after 13 days; read-out: Control of CHEAL after post-emergence application (100=total damage to plant; 0=no damage to plant)
Method: as §1, §2

Setaria faberi (SETFA) = conditions: Setaria faberi, post-emergence, 312 h, Application Rate 500 g/Ha; evaluated after 13 days; read-out: Control of SETFA after post-emergence application (100=total damage to plant; 0=no damage to plant)
Method: as §1, §2

[3] = test system: Echinochloa crus-galli (ECHCG); conditions: Echinochloa crus-galli, post-emergence, 312 h, Application Rate 500 g/Ha; evaluated after 13 days; read-out: Control of ECHCG after post-emergence application (100=total damage to plant; 0=no damage to plant)
Method: as §1, §2

[4] = test system: Euphorbia heterophylla (EPHHL); conditions: Euphorbia heterophylla, post-emergence, 312 h, Application Rate 500 g/Ha; evaluated after 13 days; read-out: Control of EPHHL after post-emergence application (100=total damage to plant; 0=no damage to plant)
Method: as §1, §2

Eleusine indica (ELEIN) = conditions: Application Rate 500 g/Ha, evaluated after 13 days; for pest or weed control at 500 g/ha: Eleusine indica, post-emergence, 312 h, read-out: Control of ELEIN after post-emergence application (100=total damage to plant; 0=no damage to plant)
Method: as §1, §2

[5] = test system: Amaranthus palmeri (AMAPA); conditions: Amaranthus palmeri, post-emergence, 312 h; Application Rate 500 g/Ha; evaluated after 13 days; read-out: Control of AMAPA after post-emergence application (100=total damage to plant; 0=no damage to plant)
Method: as §1, §2

[6] = test system: Digitaria sanguinalis (DIGSA); conditions: Digitaria sanguinalis, post-emergence, 312 h; Application Rate 500 g/Ha; evaluated after 13 days; read-out: Control of DIGSA after post-emergence application (100=total damage to plant; 0=no damage to plant)
Method: as §1, §2

Lolium perenne (LOLPE) = conditions: Application Rate 500 g/Ha, evaluated after 13 days; for pest or weed control at 500 g/ha: Lolium perenne, post-emergence, 312 h, read-out: Control of LOLPE after post-emergence application (100=total damage to plant; 0=no damage to plant)
Method: as §1, §2

Structure (SMILES)	pest or weed control at 500 g/ha [1] [%]	pest or weed control at 500 g/ha [2] [%]	pest or weed control at 500 g/ha (Setaria faberi (SETFA)) [%]	pest or weed control at 500 g/ha [3] [%]	pest or weed control at 500 g/ha [4] [%]	pest or weed control at 500 g/ha (Eleusine indica (ELEIN)) [%]	pest or weed control at 500 g/ha [5] [%]	pest or weed control at 500 g/ha [6] [%]	pest or weed control at 500 g/ha (Lolium perenne (LOLPE)) [%]	Control of IPOHE after post-emergence application (100=total damage to plant; 0=no damage to plant) [1]	Control of ELEIN after post-emergence application (100=total damage to plant; 0=no damage to plant) (Eleusine indica (ELEIN))	Control of LOLPE after post-emergence application (100=total damage to plant; 0=no damage to plant) (Lolium perenne (LOLPE))
N[C@@H](CCC[n+]1ccc(-c2ncccn2)cn1)C(=O)O [Compound 1.030, [(1S)-1-carboxy-4-(4-pyrimidin-2-ylpyridazin-1-ium-1-yl)butyl]-ammonium dichloride]	60	100	100	100	100	90	100	100	60	–	–	–
Cl.O=S(=O)([O-])CC[n+]1ccc(-c2cccnn2)cn1 [Compound 1.031, 2-(4-pyridazin-1-ium-3-ylpyridazin-1-ium-1-yl)ethanesulfonate chloride]	–	90	100	100	100	100	100	100	90	70	–	–
N#C[N-]C(=O)CC[n+]1ccc(-c2ncccn2)cn1 [Compound 1.033]	50	100	90	90	100	100	100	100	90	–	–	–
Cl.O=C(O)CC[n+]1ccc(-c2cccnn2)cn1.[Cl-] [Compound 1.034, 3-(4-pyridazin-1-ium-3-ylpyridazin-1-ium-1-yl)propanoic acid dichloride]	–	100	100	100	100	–	100	100	–	60	100	90
N[C@@H](CC[n+]1ccc(-c2ncccn2)cn1)C(=O)O [Compound 1.035, [(1S)-1-carboxy-3-(4-pyrimidin-2-ylpyridazin-1-ium-1-yl)propyl]-ammonium 2,2,2-trifluoroacetate]	90	100	100	60	90	100	100	90	20	–	–	–
